In assay [1] the test system is cholesterol biosynthesis in HEP-G2 cells. The assay can be described thus: Suppression or inhibition of cholesterol biosynthesis in cell cultures of HEP-G2 cells. Format: cell-based. Conditions: Homo sapiens, HepG2, Table II, ^14C-cholesterol formed from ^14C-sodium acetate. On the procedure:
Monolayers of HEP-G2 cells in lipoprotein-free nutrient medium were preincubated with corresponding concentrations of the test substances for a certain time (e.g. 1 hour) and after addition of the labeled precursor, for example ^14 C-sodium acetate, the incubation was continued (e.g. 3 hours). After addition of an internal standard (^3 H-cholesterol), a portion of the cells was subjected to alkaline saponification. The lipids in the saponified cells were extracted with chloroform/methanol. After addition of carrier cholesterol, this lipid mixture was separated by preparative thin layer chromatography, the cholesterol band was isolated after rendering visible using iodine vapor and the amount of ^14 C-cholesterol formed from the ^14 C-precursor was determined by scintigraphy. Cell protein was determined in a aliquote portion of the cells, so that the amount of ^14 C-cholesterol formed per unit time per mg of cell protein can be calculated. By comparing this value with the amount of ^14 C-cholesterol which was formed per mg of cell protein and per unit time from a culture which was treated in the same way but free from test substance, the inhibitory effect of the particular test preparation on the cholesterol biosynthesis of HEP-G2 cell cultures was obtained. [drawing 12]
Using the method described above, for example, the following inhibitory values for the cholesterol biosynthesis (in HEP-G2 cells) were determined for the compounds according to the invention (the IC50 value in mole/liter is that concentration of the compound which effects a 50% inhibition of the cholesterol biosynthesis) (Tab. II).

The subject of the next assay is LDL. The assay can be described thus: Inhibition of Cu^2+-catalyzed LDL oxidation (increase in fluorescence at 430 nm). The assay is classed as biochemical, pigs. The conditions noted are these: Table I; 50% inhibition of fluorescence increase at 430 nm; 5 μM Cu^2+, 2 hours, 37° C., pH 7.4; LDL 0.1 mg protein/ml. On the procedure:
The method for testing the antioxidant action of the substances is based on the inhibition of the Cu^2+ -catalyzed oxidation of LDL by active compounds, the increase in fluorescence at 430 nm serving as a measure of the LDL oxidation (U.P. Steinbrecher, J. Biol. Chem. 262. 3603 (1987)).
Blood from freshly slaughtered pigs, which was collected in the presence of EDTA (1 mg/ml) and NaN3 (0.1 mg/ml) and then centrifuged for 20 min at 2,000×g and 4° C. in order to remove the cellular constituents, was used for isolation of the LDL. Stepwise ultracentrifuging of the plasma in NaCl/NaBr solutions having densities of d=1.019 and d=1.063 yielded the LDL fraction (R. J. Havel, H. A. Eder and J. H. Bragdon, J. Clin. Investig. 34, 1345 (1955)). In this method the samples were centrifuged in a 50.2 Ti fixed angle rotor (Beckman Instruments) in each case for 18 hours at 300,000×g and 17° C. In order to lower the EDTA concentration, the LDL fraction obtained in this way had to be subjected for 48 hours to two dialyses in 100 times the volume of a phosphate-buffered saline solution (160 mM NaCl, 10 mM NaH2 PO4) of pH 7.4 (U. P. Steinbrecher, J. L. Witztum, S. Parthasarathy and D. Steinberg, Arteriosclerosis 7, 135 (1987)).
For the oxidation tests, the LDL fraction, which was stored at 4° C., was diluted to 0.1 mg of protein/ml using the dialysis buffer of the abovementioned composition. 2.5 ml of this LDL solution were treated with 25 μl of ethanolic solution having various concentrations of the test substance and the samples were incubated in closed vessels under nitrogen for 1 hour at 37° C., in order initially to achieve an adequate incorporation of the substance in the LDL particles (L. R. McLean and K. A. Hagaman, Biochemistry 28, 321 (1989)). The maximum concentration of the test compounds was 10 μM in the test.
The oxidation of the LDL was effected by adding 12.5 μl of a 1 mM CuSO4 solution, i.e. 5 μM Cu^2+ in the test, and incubating for two hours at 37° C. in cell culture dishes open to the air. The controls contained 25 μl of pure ethanol. To determine the blank, analogously prepared LDL samples were treated with 12.5 μl of a solution of 1 mM CuSO4 and 40 mM EDTA and likewise incubated for 2 hours at 37° C.
After the end of the incubation, the fluorescence intensity emitted at 430 nm was determined in all samples using the excitation wavelength 365 nm (Perkin-Elmer type LS-3 spectrofluorimeter).
The IC50 values, i.e. those molar concentrations which, under the test conditions described, inhibit the increase in fluorescence by 50% (controls =100), were determined for comparison of the strength of action of the antioxidants. For this purpose the fluorescence measurement was carried out as a duplicate determination using, in each case, 5 to 6 different concentrations of the test substance. Plotting the percentage inhibition values on semi-logarithmic paper and graphic interpolation gave the corresponding IC50 (Table I). Vitamin E was used as comparison compound.

By IC50 is commonly meant the point on the concentration scale where inhibition reaches its midpoint. The low end stands for higher potency, the high end for lower potency. Consider `C/C(=C\CSCc1c(-c2ccc(O)cc2)oc2cc(O)cc(O)c2c1=O)CCC[C@H](C)CCC[C@H](C)CCCC(C)C` [Example 9i], for which the results for the IC50 (in assay [1]; in the assay with LDL) were 9 nM and 900 nM, respectively.
On to Vitamin E [reference compound], for which the midpoint of inhibition in the assay on LDL, the IC50, lay at 4800 nM. That is a single-digit micromolar value.
In the assay with LDL, `CCCCCCCCCCCCSCc1c(-c2ccc(F)cc2)oc2cc(O)cc(O)c2c1=O` [Example 9b] came in with an IC50 of 12000 nM.
Turning to `CC(C)=CCC/C(C)=C/CC/C(C)=C/CSCc1c(-c2ccc(F)cc2)oc2cc(O)cc(O)c2c1=O` [Example 9l], the IC50 in assay [1] was 80 nM. This counts as double-digit nanomolar.
With `CCCCCCCCCCCCCCCCCCSCc1c(-c2ccc(F)cc2)oc2cc(O)cc(O)c2c1=O` [Example 9d], half-maximal inhibition in the assay with LDL (IC50) required 8000 nM. In other words, the single-digit micromolar range.
Regarding `COc1ccc(-c2oc3cc(O)cc(O)c3c(=O)c2CSC/C=C(\C)CC/C=C(\C)CCC=C(C)C)cc1` [Example 9m], in assay [1], inhibition was half-maximal at 80 nM (IC50).
Regarding `C/C(=C\CSCc1c(-c2ccc(F)cc2)oc2cc(O)cc(O)c2c1=O)CCC[C@H](C)CCC[C@H](C)CCCC(C)C` [Example 9e], the IC50 was 10 nM in assay [1] and 330 nM in the assay on LDL.

(Values after patent US5173498A, “Substituted 3-thia- and 3-oxa-alkylflavones, a process for their preparation, the use thereof, medicaments based on these compounds and intermediates” (Hoechst Aktiengesellschaft, priority 1990, dated 1992).)
